Source: patent US20190212344A1, “BIOMARKERS FOR USE IN DETERMINING RESPONSE TO TREATMENT OF NEURODEGENERATION DISEASE” (The Board of Trustees of the Leland Stanford Junior …, priority 2016, published 2019)
Residues, ends and D or L forms follow the SMILES beside them.

Tested on: R6/2 mice
Assay: Survival of R6/2 and WT mice during P110 treatment
Format: in vivo, mouse
Conditions: 10 P110-treated WT mice, intermittent treatment over 8 weeks
Protocol: All the experiments were in accordance with protocols approved by the Institutional Animal Care and Use Committee of Stanford University and were performed based on the National Institutes of Health Guide for the Care and Use of Laboratory Animals. Hemizygous R6/2 HD mice and their wild-type littermates (WT) were purchased from Jackson Laboratories and shipped to us at 5 weeks of age. The animals used in the P110 treatment study were implanted with a 28-day osmotic pump (Alzet, Cupertino Calif.) containing TAT47-57 carrier control peptide or P110-TAT47-57 (P110 peptide), which delivered to the mice at a rate of 3 mg/Kg/day, as described before. The first pump was implanted at 5 weeks of age and replaced once, after 4 weeks. For the intermittent treatment study, TAT or P110 were delivered as above, using a 1-week pump. After 3 weeks with no treatment, a new pump was implanted for another week of treatment, and mice were sacrificed three weeks later, at the age of 13 weeks.
The overall survival during the study period was recorded and the remaining mice were sacrificed when they reached 13 weeks. […]
The results are presented as mean±SE. Statistical analysis was assessed by unpaired Student's t test and 1-way ANOVA using GraphPad Prism (GraphPad Software, Inc, La Jolla, Calif.). […]

CC(C)C[C@H](NC(=O)[C@H](CC(=O)O)NC(=O)CNC(=O)CNC(=O)[C@H](CCCNC(=N)N)NC(=O)[C@H](CCCNC(=N)N)NC(=O)[C@H](CCCNC(=N)N)NC(=O)[C@H](CCC(N)=O)NC(=O)[C@H](CCCNC(=N)N)NC(=O)[C@H](CCCNC(=N)N)NC(=O)[C@H](CCCCN)NC(=O)[C@H](CCCCN)NC(=O)[C@H](CCCNC(=N)N)NC(=O)CNC(=O)[C@@H](N)Cc1ccc(O)cc1)C(=O)N[C@@H](CC(C)C)C(=O)N1CCC[C@H]1C(=O)N[C@@H](CCCNC(=N)N)C(=O)NCC(=O)N[C@@H](CO)C(=O)O [P110] (H-YGRKKRRQRRRGGDLLPRGS-OH)
death in WT mice: no death
